Data reported in the supplement of paper PMC10307832.

What was measured:
Assay in all cases: relative viability (nuclei count vs DMSO), 5 days (fraction); higher = more cells survive
[1] = compound: C1=CC2=C(C=C(C(=C2N=C1)O)N=NC3=CC4=C(C=C3)C=C(C=C4)S(=O)(=O)O)S(=O)(=O)O + CS(=O)(=O)CCNCc1ccc(-c2ccc3ncnc(Nc4ccc(OCc5cccc(F)c5)c(Cl)c4)c3c2)o1 [Lapatinib] (partner 2 µM)
In short: (§1)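 Lung cancer cell lines, seeded in 1536-well plates, were treated the following day by pin tool with a single drug or with five library-drug doses (not always all listed) in √10 steps on top of a fixed anchor-drug dose. Cells were fixed and nuclei stained in one step after 5 days, and nuclei were counted. Relative viability is the nuclei count for treated wells divided by that for vehicle wells, reported as medians of duplicate plates.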

AT-7519 + Palbociclib = compound: O=C(NC1CCNCC1)c1n[nH]cc1NC(=O)c1c(Cl)cccc1Cl [AT-7519] + CC(=O)c1c(C)c2cnc(Nc3ccc(N4CCNCC4)cn3)nc2n(C2CCCC2)c1=O [Palbociclib] (partner 0.5 µM)
In short: as §1

AT-7519 + Luminespib = compound: O=C(NC1CCNCC1)c1n[nH]cc1NC(=O)c1c(Cl)cccc1Cl [AT-7519] + CCNC(=O)c1noc(-c2cc(C(C)C)c(O)cc2O)c1-c1ccc(CN2CCOCC2)cc1 [Luminespib] (partner 0.01 µM)
In short: as §1

AT-7519 + Phenformin = compound: O=C(NC1CCNCC1)c1n[nH]cc1NC(=O)c1c(Cl)cccc1Cl [AT-7519] + N=C(N)NC(=N)NCCc1ccccc1 [Phenformin] (partner 250 µM)
In short: as §1

| Cell Line | relative viability ([1]; first compound 0.08 µM) | relative viability ([1]; first compound 0.253 µM) | relative viability ([1]; first compound 0.8 µM) | relative viability ([1]; first compound 2.53 µM) | relative viability ([1]; first compound 8 µM) | relative viability (AT-7519 + Palbociclib; first compound 0.01 µM) | relative viability (AT-7519 + Palbociclib; first compound 0.03162 µM) | relative viability (AT-7519 + Palbociclib; first compound 0.3162 µM) | relative viability (AT-7519 + Palbociclib; first compound 1 µM) | relative viability (AT-7519 + Luminespib; first compound 0.01 µM) | relative viability (AT-7519 + Luminespib; first compound 0.03162 µM) | relative viability (AT-7519 + Luminespib; first compound 0.3162 µM) | relative viability (AT-7519 + Luminespib; first compound 1 µM) | relative viability (AT-7519 + Phenformin; first compound 0.01 µM) | relative viability (AT-7519 + Phenformin; first compound 0.03162 µM) | relative viability (AT-7519 + Phenformin; first compound 0.3162 µM) | relative viability (AT-7519 + Phenformin; first compound 1 µM) |
| --- | --- | --- | --- | --- | --- | --- | --- | --- | --- | --- | --- | --- | --- | --- | --- | --- | --- |
| NCI-H2228 | 0.966 | 1.29 | 0.986 | 1.21 | 1.06 | 0.638 | 0.642 | 0.636 | 0.408 | 0.152 | 0.174 | 0.156 | 0.165 | 0.298 | 0.305 | 0.193 | 0.165 |
| PC-14 | 0.369 | 0.333 | 0.322 | 0.357 | 0.329 | 0.433 | 0.502 | 0.338 | 0.0604 | 0.196 | 0.151 | 0.151 | 0.111 | 0.519 | 0.566 | 0.424 | 0.314 |
| NCI-H1437 | 0.896 | 0.791 | 0.781 | 0.811 | 0.748 | 0.282 | 0.319 | 0.295 | 0.251 | 1.17 | 1.2 | 1.09 | 0.745 | 0.322 | 0.328 | 0.292 | 0.194 |
| NCI-H460 | 1.53 | 1.01 | 1.05 | 1.13 | 0.965 | 0.137 | 0.142 | 0.0995 | 0.019 | 0.0297 | 0.0263 | 0.0291 | 0.0206 | 0.636 | 0.31 | 0.0379 | 0.0177 |
| NCI-H1666 | 0.768 | 0.606 | 0.473 | 0.718 | 0.618 | 0.642 | 0.658 | 0.674 | 0.655 | 1.06 | 0.943 | 0.988 | 0.585 | 0.59 | 0.568 | 0.538 | 0.402 |
| NCI-H1651 | 0.764 | 0.865 | 0.781 | 0.911 | 0.964 | 0.517 | 0.504 | 0.547 | 0.534 | 0.882 | 0.675 | 0.614 | 0.607 | 0.298 | 0.344 | 0.36 | 0.325 |
| NCI-H1755 | 1.06 | 1.04 | 1.01 | 1.05 | 1.05 | 0.477 | 0.478 | 0.435 | 0.458 | 0.59 | 0.38 | 0.345 | 0.416 | 0.638 | 0.633 | 0.608 | 0.546 |
| NCI-H661 | 0.541 | 0.49 | 0.431 | 0.626 | 0.49 | 0.382 | 0.432 | 0.4 | 0.256 | 1.01 | 0.92 | 0.975 | 0.219 | 0.277 | 0.27 | 0.249 | 0.189 |
| HARA | 0.836 | 0.611 | 0.681 | 0.869 | 0.778 | 0.194 |  | 0.273 | 0.233 | 0.71 | 0.533 | 0.412 | 0.398 | 0.415 | 0.52 | 0.503 | 0.358 |
| NCI-H23 | 1.31 | 1.02 | 1.03 | 0.984 | 1.18 | 0.594 | 0.508 | 0.482 | 0.292 | 0.224 | 0.236 | 0.183 | 0.146 | 0.632 | 0.794 | 0.779 | 0.52 |
| LCLC-97TM1 |  | 0.665 |  | 0.835 | 1.04 | 0.228 | 0.234 | 0.215 | 0.135 | 0.976 | 0.692 | 0.788 | 0.285 | 0.476 | 0.456 | 0.42 | 0.289 |
| EPLC-272H | 1 | 0.947 | 0.895 | 1 | 0.935 | 0.346 | 0.324 | 0.302 | 0.307 | 0.226 | 0.216 | 0.37 | 0.0726 | 0.272 | 0.295 | 0.307 | 0.198 |
| NCI-H1915 | 1.06 | 1.01 | 1 | 0.883 | 1.02 | 0.592 | 0.509 | 0.608 | 0.39 | 0.687 | 0.798 | 0.729 | 0.62 | 0.365 | 0.384 | 0.345 | 0.376 |
| NCI-H2405 | 1.04 | 1.07 | 0.979 | 1.02 | 1 | 0.534 | 0.523 | 0.532 | 0.381 | 0.713 | 0.718 | 0.592 | 0.281 | 0.375 | 0.39 | 0.35 | 0.32 |
| NCI-H322M | 0.627 | 0.639 | 0.528 | 0.613 | 0.716 | 0.501 | 0.486 | 0.419 | 0.473 | 0.893 | 0.824 | 0.462 | 0.305 | 0.796 | 0.784 | 0.612 | 0.448 |
| NCI-H2170 | 0.267 | 0.272 | 0.271 | 0.292 | 0.286 | 0.418 | 0.427 | 0.345 | 0.423 | 0.398 | 0.636 | 0.807 | 0.599 | 0.412 | 0.414 | 0.423 | 0.418 |
